Laboratory results as given in ChEMBL document CHEMBL5303573, “Mapping human microbiome drug metabolism by gut bacteria and their genes” (Nature, 2019).

Tested on: not given
Conditions: clostridioides difficile, 12 h, 2 µM

SMILES | Bacterial Biotransformation
C[C@@H]1CC[C@H]2[C@@H](C)C(=O)O[C@@H]3O[C@@]4(C)CC[C@@H]1[C@]32OO4 [ARTEMISININ] | Compound metabolized

Target: T1, Nitroreductase domain-containing protein (Phocaeicola dorei, UniProt B6VU18)
T1 sequence (B6VU18 whole entry): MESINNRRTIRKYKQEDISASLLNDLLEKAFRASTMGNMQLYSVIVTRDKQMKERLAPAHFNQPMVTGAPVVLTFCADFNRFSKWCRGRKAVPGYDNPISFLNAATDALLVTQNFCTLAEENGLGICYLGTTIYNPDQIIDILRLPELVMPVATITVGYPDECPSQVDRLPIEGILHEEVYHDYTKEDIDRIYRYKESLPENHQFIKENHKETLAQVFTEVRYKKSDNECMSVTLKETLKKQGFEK
Test: (§1) The drug is tested on Bacteroides dorei strain: DSM17855 for biotransformation. The drug concentrations were measured before and after a 12-h incubation by liquid-chromatography-coupled mass spectrometry (LC–MS)
Format: ADME
Set-up: dose 2 uM
Conditions: 2 µM

SMILES | Bacterial Biotransformation
CC(=O)Oc1ccc(C(c2ccc(OC(C)=O)cc2)c2ccccn2)cc1 [BISACODYL] | Compound NOT metabolized
C[C@@H]1CC[C@H]2[C@@H](C)C(=O)O[C@@H]3O[C@@]4(C)CC[C@@H]1[C@]32OO4 [ARTEMISININ] | Compound NOT metabolized
COc1ccnc(C[S+]([O-])c2nc3ccc(OC(F)F)cc3[nH]2)c1OC (stereo not drawn) [PANTOPRAZOLE] | Compound NOT metabolized
CC(=O)Nc1ccc(OC(C)=O)cc1 [DIACETAMATE] | Compound NOT metabolized
Nc1ccc(/N=N/c2ccccc2)c(N)n1 [PHENAZOPYRIDINE] | Compound NOT metabolized
CCN(CC)C(=O)/C(C#N)=C/c1cc(O)c(O)c([N+](=O)[O-])c1 [ENTACAPONE] | Compound NOT metabolized
CC(=O)OCC(=O)NCCCOc1cccc(CN2CCCCC2)c1 [ROXATIDINE ACETATE] | Compound NOT metabolized
CCS(=O)(=O)CCn1c([N+](=O)[O-])cnc1C [TINIDAZOLE] | Compound metabolized

Target: T2, Acyltransferase 3 domain-containing protein (Phocaeicola dorei, UniProt B6W2J3)
T2 sequence (B6W2J3 whole entry): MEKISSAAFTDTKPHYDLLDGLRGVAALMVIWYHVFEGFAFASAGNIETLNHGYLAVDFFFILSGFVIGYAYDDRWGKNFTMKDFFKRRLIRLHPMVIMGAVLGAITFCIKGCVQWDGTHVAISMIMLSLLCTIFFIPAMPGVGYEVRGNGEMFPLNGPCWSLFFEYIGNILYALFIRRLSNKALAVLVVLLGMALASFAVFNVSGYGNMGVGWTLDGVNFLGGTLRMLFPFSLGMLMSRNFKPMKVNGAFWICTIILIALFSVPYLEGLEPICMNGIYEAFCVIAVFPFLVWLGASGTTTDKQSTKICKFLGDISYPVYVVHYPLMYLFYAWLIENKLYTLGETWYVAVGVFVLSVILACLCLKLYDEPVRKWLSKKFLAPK
Test: as §1
Format: ADME
Set-up: dose 2 uM
Conditions: 2 µM

SMILES | Bacterial Biotransformation
CC(=O)Oc1ccc(C(c2ccc(OC(C)=O)cc2)c2ccccn2)cc1 [BISACODYL] | Compound NOT metabolized
C[C@@H]1CC[C@H]2[C@@H](C)C(=O)O[C@@H]3O[C@@]4(C)CC[C@@H]1[C@]32OO4 [ARTEMISININ] | Compound NOT metabolized
COc1ccnc(C[S+]([O-])c2nc3ccc(OC(F)F)cc3[nH]2)c1OC (stereo not drawn) [PANTOPRAZOLE] | Compound NOT metabolized
CC(=O)Nc1ccc(OC(C)=O)cc1 [DIACETAMATE] | Compound NOT metabolized
Nc1ccc(/N=N/c2ccccc2)c(N)n1 [PHENAZOPYRIDINE] | Compound NOT metabolized
CCN(CC)C(=O)/C(C#N)=C/c1cc(O)c(O)c([N+](=O)[O-])c1 [ENTACAPONE] | Compound NOT metabolized
CC(=O)OCC(=O)NCCCOc1cccc(CN2CCCCC2)c1 [ROXATIDINE ACETATE] | Compound NOT metabolized
CCS(=O)(=O)CCn1c([N+](=O)[O-])cnc1C [TINIDAZOLE] | Compound NOT metabolized

Target: T3, SGNH hydrolase-type esterase domain-containing protein (Phocaeicola dorei, UniProt B6VTE7)
T3 sequence (B6VTE7 whole entry): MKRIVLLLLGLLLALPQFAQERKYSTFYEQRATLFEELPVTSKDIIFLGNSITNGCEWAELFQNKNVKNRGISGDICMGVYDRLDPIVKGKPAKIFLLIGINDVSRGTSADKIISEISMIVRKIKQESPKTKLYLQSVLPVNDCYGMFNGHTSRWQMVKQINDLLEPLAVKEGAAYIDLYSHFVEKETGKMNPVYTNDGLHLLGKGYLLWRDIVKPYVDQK
Test: as §1
Format: ADME
Set-up: dose 2 uM
Conditions: 2 µM

SMILES | Bacterial Biotransformation
CC(=O)Oc1ccc(C(c2ccc(OC(C)=O)cc2)c2ccccn2)cc1 [BISACODYL] | Compound metabolized
C[C@@H]1CC[C@H]2[C@@H](C)C(=O)O[C@@H]3O[C@@]4(C)CC[C@@H]1[C@]32OO4 [ARTEMISININ] | Compound NOT metabolized
COc1ccnc(C[S+]([O-])c2nc3ccc(OC(F)F)cc3[nH]2)c1OC (stereo not drawn) [PANTOPRAZOLE] | Compound metabolized
CC(=O)Nc1ccc(OC(C)=O)cc1 [DIACETAMATE] | Compound metabolized
Nc1ccc(/N=N/c2ccccc2)c(N)n1 [PHENAZOPYRIDINE] | Compound NOT metabolized
CCN(CC)C(=O)/C(C#N)=C/c1cc(O)c(O)c([N+](=O)[O-])c1 [ENTACAPONE] | Compound NOT metabolized
CC(=O)OCC(=O)NCCCOc1cccc(CN2CCCCC2)c1 [ROXATIDINE ACETATE] | Compound NOT metabolized
CCS(=O)(=O)CCn1c([N+](=O)[O-])cnc1C [TINIDAZOLE] | Compound NOT metabolized

Target: T4, Nitroreductase domain-containing protein (Phocaeicola dorei, UniProt B6W3P3)
T4 sequence (B6W3P3 whole entry): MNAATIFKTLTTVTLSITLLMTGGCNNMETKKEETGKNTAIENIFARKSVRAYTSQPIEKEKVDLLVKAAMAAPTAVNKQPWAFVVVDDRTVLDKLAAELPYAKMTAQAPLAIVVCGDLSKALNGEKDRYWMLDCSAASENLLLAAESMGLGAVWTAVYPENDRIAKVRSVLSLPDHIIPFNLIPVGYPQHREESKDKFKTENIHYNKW
Test: as §1
Format: ADME
Set-up: dose 2 uM
Conditions: 2 µM

SMILES | Bacterial Biotransformation
CC(=O)Oc1ccc(C(c2ccc(OC(C)=O)cc2)c2ccccn2)cc1 [BISACODYL] | Compound NOT metabolized
C[C@@H]1CC[C@H]2[C@@H](C)C(=O)O[C@@H]3O[C@@]4(C)CC[C@@H]1[C@]32OO4 [ARTEMISININ] | Compound NOT metabolized
COc1ccnc(C[S+]([O-])c2nc3ccc(OC(F)F)cc3[nH]2)c1OC (stereo not drawn) [PANTOPRAZOLE] | Compound NOT metabolized
CC(=O)Nc1ccc(OC(C)=O)cc1 [DIACETAMATE] | Compound NOT metabolized
Nc1ccc(/N=N/c2ccccc2)c(N)n1 [PHENAZOPYRIDINE] | Compound NOT metabolized
CCN(CC)C(=O)/C(C#N)=C/c1cc(O)c(O)c([N+](=O)[O-])c1 [ENTACAPONE] | Compound NOT metabolized
CC(=O)OCC(=O)NCCCOc1cccc(CN2CCCCC2)c1 [ROXATIDINE ACETATE] | Compound NOT metabolized
CCS(=O)(=O)CCn1c([N+](=O)[O-])cnc1C [TINIDAZOLE] | Compound metabolized

Target: T5, SGNH hydrolase-type esterase domain-containing protein (Phocaeicola dorei, UniProt B6W293)
T5 sequence (B6W293 whole entry): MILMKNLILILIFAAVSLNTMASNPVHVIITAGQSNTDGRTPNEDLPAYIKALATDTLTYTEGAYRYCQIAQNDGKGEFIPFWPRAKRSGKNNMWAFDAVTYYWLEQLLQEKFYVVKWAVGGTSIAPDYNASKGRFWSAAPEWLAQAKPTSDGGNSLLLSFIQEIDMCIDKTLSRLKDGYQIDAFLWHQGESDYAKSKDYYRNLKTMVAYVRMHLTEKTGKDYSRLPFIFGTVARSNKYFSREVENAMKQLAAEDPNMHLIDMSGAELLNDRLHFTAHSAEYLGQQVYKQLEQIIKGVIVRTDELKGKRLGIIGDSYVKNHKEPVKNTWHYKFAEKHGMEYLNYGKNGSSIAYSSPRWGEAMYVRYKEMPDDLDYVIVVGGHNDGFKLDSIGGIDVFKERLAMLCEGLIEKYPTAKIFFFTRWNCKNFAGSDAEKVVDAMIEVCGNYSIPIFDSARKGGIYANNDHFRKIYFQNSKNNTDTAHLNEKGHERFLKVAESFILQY
Test: as §1
Format: ADME
Set-up: dose 2 uM
Conditions: 2 µM

SMILES | Bacterial Biotransformation
CC(=O)Oc1ccc(C(c2ccc(OC(C)=O)cc2)c2ccccn2)cc1 [BISACODYL] | Compound metabolized
C[C@@H]1CC[C@H]2[C@@H](C)C(=O)O[C@@H]3O[C@@]4(C)CC[C@@H]1[C@]32OO4 [ARTEMISININ] | Compound NOT metabolized
COc1ccnc(C[S+]([O-])c2nc3ccc(OC(F)F)cc3[nH]2)c1OC (stereo not drawn) [PANTOPRAZOLE] | Compound metabolized
CC(=O)Nc1ccc(OC(C)=O)cc1 [DIACETAMATE] | Compound metabolized
Nc1ccc(/N=N/c2ccccc2)c(N)n1 [PHENAZOPYRIDINE] | Compound NOT metabolized
CCN(CC)C(=O)/C(C#N)=C/c1cc(O)c(O)c([N+](=O)[O-])c1 [ENTACAPONE] | Compound NOT metabolized
CC(=O)OCC(=O)NCCCOc1cccc(CN2CCCCC2)c1 [ROXATIDINE ACETATE] | Compound NOT metabolized
CCS(=O)(=O)CCn1c([N+](=O)[O-])cnc1C [TINIDAZOLE] | Compound NOT metabolized

Target: T6, Esterase (Phocaeicola dorei, UniProt B6W2J6)
T6 sequence (B6W2J6 whole entry): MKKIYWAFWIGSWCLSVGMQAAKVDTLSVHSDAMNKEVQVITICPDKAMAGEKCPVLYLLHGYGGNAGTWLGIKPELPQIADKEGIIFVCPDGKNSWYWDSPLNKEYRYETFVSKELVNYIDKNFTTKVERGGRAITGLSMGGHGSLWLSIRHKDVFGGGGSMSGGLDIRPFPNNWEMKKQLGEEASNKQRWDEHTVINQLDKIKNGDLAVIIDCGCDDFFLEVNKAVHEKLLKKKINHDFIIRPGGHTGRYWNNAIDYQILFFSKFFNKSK
Test: as §1
Format: ADME
Set-up: dose 2 uM
Conditions: 2 µM

SMILES | Bacterial Biotransformation
CC(=O)Oc1ccc(C(c2ccc(OC(C)=O)cc2)c2ccccn2)cc1 [BISACODYL] | Compound metabolized
C[C@@H]1CC[C@H]2[C@@H](C)C(=O)O[C@@H]3O[C@@]4(C)CC[C@@H]1[C@]32OO4 [ARTEMISININ] | Compound NOT metabolized
COc1ccnc(C[S+]([O-])c2nc3ccc(OC(F)F)cc3[nH]2)c1OC (stereo not drawn) [PANTOPRAZOLE] | Compound metabolized
CC(=O)Nc1ccc(OC(C)=O)cc1 [DIACETAMATE] | Compound metabolized
Nc1ccc(/N=N/c2ccccc2)c(N)n1 [PHENAZOPYRIDINE] | Compound NOT metabolized
CCN(CC)C(=O)/C(C#N)=C/c1cc(O)c(O)c([N+](=O)[O-])c1 [ENTACAPONE] | Compound NOT metabolized
CC(=O)OCC(=O)NCCCOc1cccc(CN2CCCCC2)c1 [ROXATIDINE ACETATE] | Compound NOT metabolized
CCS(=O)(=O)CCn1c([N+](=O)[O-])cnc1C [TINIDAZOLE] | Compound NOT metabolized

Tested on: not listed separately
Test: The drug is tested on Salmonella typhimurium strain: LT2 for biotransformation. The drug concentrations were measured before and after a 12-h incubation by liquid-chromatography-coupled mass spectrometry (LC–MS)
Conditions: salmonella enterica subsp. enterica, 2 µM

SMILES | Bacterial Biotransformation
CC(=O)Oc1ccc(C(c2ccc(OC(C)=O)cc2)c2ccccn2)cc1 [BISACODYL] | Compound metabolized

Target: T7, GDSL-like protein (Collinsella aerofaciens, UniProt A4E8S4)
T7 sequence (A4E8S4 whole entry): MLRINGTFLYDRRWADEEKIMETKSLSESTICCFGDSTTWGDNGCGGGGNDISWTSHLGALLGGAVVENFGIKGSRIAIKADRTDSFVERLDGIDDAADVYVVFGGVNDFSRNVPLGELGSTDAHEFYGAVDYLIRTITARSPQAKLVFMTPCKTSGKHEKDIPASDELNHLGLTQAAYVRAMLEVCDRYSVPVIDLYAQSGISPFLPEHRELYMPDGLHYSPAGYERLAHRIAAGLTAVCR
Test: The drug is tested on Collinsella aerofaciens strain: ATCC25986 for biotransformation. The drug concentrations were measured before and after a 12-h incubation by liquid-chromatography-coupled mass spectrometry (LC–MS)
Format: ADME
Set-up: dose 2 uM
Conditions: 2 µM

SMILES | Bacterial Biotransformation
CC(=O)Oc1ccc(C(c2ccc(OC(C)=O)cc2)c2ccccn2)cc1 [BISACODYL] | Compound metabolized
C[C@@H]1CC[C@H]2[C@@H](C)C(=O)O[C@@H]3O[C@@]4(C)CC[C@@H]1[C@]32OO4 [ARTEMISININ] | Compound NOT metabolized
COc1ccnc(C[S+]([O-])c2nc3ccc(OC(F)F)cc3[nH]2)c1OC (stereo not drawn) [PANTOPRAZOLE] | Compound NOT metabolized
CC(=O)Nc1ccc(OC(C)=O)cc1 [DIACETAMATE] | Compound metabolized
Nc1ccc(/N=N/c2ccccc2)c(N)n1 [PHENAZOPYRIDINE] | Compound NOT metabolized
CCN(CC)C(=O)/C(C#N)=C/c1cc(O)c(O)c([N+](=O)[O-])c1 [ENTACAPONE] | Compound NOT metabolized
CC(=O)OCC(=O)NCCCOc1cccc(CN2CCCCC2)c1 [ROXATIDINE ACETATE] | Compound NOT metabolized
CCS(=O)(=O)CCn1c([N+](=O)[O-])cnc1C [TINIDAZOLE] | Compound NOT metabolized
